Reference: patent publication US12686690B2, “Macrocyclic urea orexin receptor agonists” (Merck Sharp & Dohme LLC, priority 2020, dated 2026)

Target: T1, hOX2R (Homo sapiens, UniProt O43614)
T1 construct: expressed in transfected cells; host or cells: CHO cells (G418 selection)
T1 sequence (O43614 1-444): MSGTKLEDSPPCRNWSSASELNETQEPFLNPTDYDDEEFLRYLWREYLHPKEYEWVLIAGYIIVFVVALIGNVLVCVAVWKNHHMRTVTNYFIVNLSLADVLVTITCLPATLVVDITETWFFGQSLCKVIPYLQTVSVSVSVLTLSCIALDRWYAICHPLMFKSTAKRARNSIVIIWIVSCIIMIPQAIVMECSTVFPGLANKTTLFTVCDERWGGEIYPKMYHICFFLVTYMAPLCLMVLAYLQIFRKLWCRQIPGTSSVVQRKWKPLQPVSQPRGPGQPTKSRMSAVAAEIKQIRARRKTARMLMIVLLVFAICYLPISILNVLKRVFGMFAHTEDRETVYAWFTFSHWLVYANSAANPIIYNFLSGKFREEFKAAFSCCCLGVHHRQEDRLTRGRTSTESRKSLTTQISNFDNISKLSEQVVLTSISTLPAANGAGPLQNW
Experiment: hOX2R IPone assay (orexin receptor agonism)
Type: cell-based
Conditions: IPone readout; for hOX2R_Ipone max %act: maximal activation; for EC50: orexin receptor agonist, read-out: hOX2R_IPone EC50

hOX2R_Ipone max %act [%] | EC50 [nM] | Molecule
102.3 | 0.9 | CCN1C(=O)NC(CC(C)C)CCCCCOc2nc(cn3ccnc23)-c2cc(ncc2OC)[C@H]1C (single isomer, unassigned) [Example 53B]
99.1 | 24.2 | CCN1C(=O)N[C@@H](CCC(F)(F)F)CCCCCOc2nc(cn3ccnc23)-c2cc(c(C)cn2)C1C (single isomer, unassigned) [Example 92B]
100.9 | 115 | CCN1C(=O)NC(CCC(F)(F)F)C(C)/C=C\COc2nc(cn3ccnc23)-c2cccc(c2)[C@H]1C (single isomer, unassigned) [Example 41A]
100.7 | 1 | CCCC1CCCCCOc2nc(cn3ccnc23)-c2cc(ncc2OC)[C@@H](C)N(CC)C(=O)N1 (single isomer, unassigned) [Example 54B]
99.9 | 88.8 | CCN1C(=O)NC(CCC(F)(F)F)CC(C)CCOc2nc(cn3ccnc23)-c2cccc(c2)[C@H]1C (single isomer, unassigned) [Example 48B]
100.3 | 34.6 | CCN1C(=O)NC(CC2CCC2)CCCCCOc2nc(cn3ccnc23)-c2cc(ncc2OC)[C@H]1C (single isomer, unassigned) [Example 61A]
101.6 | 4.1 | CCN1C(=O)NC(CC2CC2(F)F)CCCCCOc2nc(cn3ccnc23)-c2cc(ncc2OC)[C@H]1C (single isomer, unassigned) [Example 59A]
100.4 | 21.3 | CCN1C(=O)NC(CCC(F)(F)F)C(C)/C=C\COc2nc(cn3ccnc23)-c2cccc(c2)[C@H]1C (single isomer, unassigned) [Example 41B]
101.4 | 6 | CCN1C(=O)N[C@@H](CCC(F)(F)F)CCCCCOc2nc(cn3cc(C)nc23)-c2cc(nc3ccoc23)C1C (single isomer, unassigned) [Example 75B]

More lines, now with the values behind:

Molecule | hOX2R_Ipone max %act [%] | EC50 [nM]
CCN1C(=O)NC(CC(O)C(F)(F)F)CCCCCOc2cn3ncnc3c(n2)-c2cc(ncc2OC)C1C [Example 131, (3R,7R,E)-4-ethyl-25-methoxy-3-methyl-7-((S)-3,3,3-trifluoro-2-hydroxypropyl)-13-oxa-4,6-diaza-1(6,8)-[1,2,4]triazolo[1,5-a]pyrazina-2(4,2)-pyridinacyclotridecaphan-5-one] | 102.2 | 0.77
CCN1C(=O)NCCCCCCOc2nc(cn3ccnc23)-c2cc(ncc2OC)[C@H]1C [Example 85, (12R)-13-ethyl-8-methoxy-12-methyl-12,13,16,17,18,19,20, 21-octahydro-6,23-(azeno)-11,7-(metheno)imidazo[2,1-c][1,4,10,13,15] oxatetraazacycloheni-cosin-14(15H)-one] | 100.5 | 5.1
CCN1C(=O)NC2CC2CCCCOc2cn3ccnc3c(n2)-c2cc(ncc2OC)C1C [Example 145, (3R,E)-4-ethyl-25-methoxy-3-methyl-12-oxa-4,6-diaza-1(6,8)-imidazo[1,2-a]pyrazina-2(4,2)-pyridina-7(1,2)-cyclopropanacyclododecaphan-5-one] | 103.8 | 4.4
CCN1C(=O)NC(CCC#N)CCCCCOc2nc(cn3ccnc23)-c2cc(ncc2OC)[C@H]1C (stereo partly drawn) [Example 196, 3-((3R,E)-4-ethyl-25-methoxy-3-methyl-5-oxo-13-oxa-4,6-diaza-1(6,8)-imidazo[1,2-a]pyrazina-2(4,2)-pyridinacyclotridecaphane-7-yl)propanenitrile] | 101.6 | 0.44
CCN1C(=O)NC(c2csc(C)n2)CCCCCOc2nc(cn3ccnc23)-c2cc(cnc2OC)C1C [Example 215, (3R,E)-4-ethyl-22-methoxy-3-methyl-7-(2-methylthiazol-4-yl)-13-oxa-4,6-diaza-1(6,8)-imidazo[1,2-a]pyrazina-2(3,5)-pyridinacyclotridecaphan-5-one] | 104.9 | 3.56
CCN1C(=O)NC(C2CCCO2)CCCCCOc2nc(cn3ccnc23)-c2cc(ncc2OC)[C@H]1C (stereo partly drawn) [Example 193, (3R,E)-4-ethyl-25-methoxy-3-methyl-7-(tetrahydrofuran-2-yl)-13-oxa-4,6-diaza-1(6,8)-imidazo[1,2-a]pyrazina-2(4,2)-pyridinacyclotri-decaphan-5-one] | 100.7 | 1.21
CCN1C(=O)N[C@@H](CF)CCCCCOc2nc(cn3ccnc23)-c2cc(ncc2OC)[C@H]1C [Example 126, (3R,7R,E)-4-ethyl-7-(fluoromethyl)-25-methoxy-3-methyl-13-oxa-4,6-diaza-1(6,8)-imidazo[1,2-a]pyrazina-2(4,2)-pyridinacyclotridecaphan-5-one] | 96.84 | 9.38
CCN1C(=O)NC(C(N)=O)CCCCCOc2nc(cn3ccnc23)-c2cc(ncc2F)[C@H]1C (stereo partly drawn) [Example 225, (3R,E)-4-ethyl-25-fluoro-3-methyl-5-oxo-13-oxa-4,6-diaza-1(6,8)-imidazo[1,2-a]pyrazina-2(4,2)-pyridinacyclotridecaphane-7-carboxamide] | 78.64 | 286
CCN1C(=O)N[C@@H](CCC(F)(F)F)CCCCCOc2nc(c(C)n3ccnc23)-c2cc(cnc2OC)[C@H]1C [Example 86, (12R,16R)-13-ethyl-8-methoxy-5,12-dimethyl-16-(3,3,3-trifluoropropyl)-12,13,16,17,18,19,20, 21-octahydro-6,23-(azeno)-11,7-(metheno)imidazo[2,1-c][1,4,9,13,15] oxatetraazacycloheni-cosin-14(15H)-one] | 99.3 | 3.5
CCN1C(=O)NC(CC(C)(F)F)CCCCCOc2nc(nn3ccnc23)-c2cc(ncc2OC)[C@H]1C (stereo partly drawn) [Example 207, (3R,E)-7-(2,2-difluoropropyl)-4-ethyl-25-methoxy-3-methyl-13-oxa-4,6-diaza-1(2,4)-imidazo[2,1-f][1,2,4]triazina-2(4,2)-pyridinacyclo-tridecaphan-5-one] | 104.7 | 4.29
CCN1C(=O)NC(c2cscn2)CCCCCOc2nc(cn3ccnc23)-c2cccc(c2)[C@H]1C (single isomer, unassigned) [Example 19A] | 97.1 | 337
CCN1C(=O)N[C@@H](C(F)(F)F)CCCCOc2nc(cn3ncnc23)-c2cc(ncc2OC)C1C(F)(F)F (stereo partly drawn) [Example 37, (16R)-13-ethyl-8-methoxy-12,16-bis(trifluoromethyl)-12,13,15,16,17,18,19,20-octahydro-14H-6,22-(azeno)-11,7-(metheno) [1,2,4]triazolo[5,1-c][1,4,10,13,15]oxatetra-azacycloicosin-14-one] | 77.3 | 3010
CCN1C(=O)NC2CN(CCCCOc3nc(cn4ccnc34)-c3cc(ncc3OC)[C@H]1C)CC2C(F)(F)F (single isomer, unassigned) [Example 214] | 102.9 | 3.43
CCN1Cc2ccc(OC)c(c2)-c2cn3ccnc3c(n2)OCCCC[C@H](CCC(F)(F)F)NC1=O [Example 44, (16R)-13-ethyl-8-methoxy-16-(3,3,3-trifluoropropyl)-12,13,15,16,17,18,19,20-octahydro-14H-6,22-(azeno)-11,7-(metheno)imidazo[2,1-c][1,4,13,15]oxatriaza-cycloicosin-14-one] | 100.4 | 1
(3R,7S,E)-4-ethyl-25-methoxy-3-methyl-7-(3,3,3-trifluoropropyl)-13-oxa-10-thia-4,6-diaza-1(6,8)-[1,2,4]triazolo[1,5-a]pyrazina-2(4,2)-pyridinacyclotridecaphan-5-one [Example 134] | 100.6 | 6.4
CCN1C(=O)NCC(C(F)(F)F)N(C)CCCOc2nc(cn3ccnc23)-c2cccc(c2)C1C [Example 26B, (3R,E)-4-ethyl-3,9-dimethyl-8-(trifluoromethyl)-13-oxa-4,6,9-triaza-1(6,8)-imidazo[1,2-a]pyrazina-2(1,3)-benzenacyclotridecaphan-5-one] | 98.8 | 12
CCN1C(=O)NC(CCCC(F)F)CCCCCOc2nc(cn3ccnc23)-c2cc(ncc2OC)[C@H]1C (stereo partly drawn) [Example 184, (3R,E)-7-(4,4-difluorobutyl)-4-ethyl-25-methoxy-3-methyl-13-oxa-4,6-diaza-1(6,8)-imidazo[1,2-a]pyrazina-2(4,2)-pyridinacyclotridecaphan-5-one] | 101.1 | 0.78
CCN1C(=O)N[C@@H](CCC(C)(F)F)CCCCCOc2nc(cn3ccnc23)-c2cc(ncc2OC)[C@H]1C [Example 83, (12R,16R)-16-(3,3-difluorobutyl)-13-ethyl-8-methoxy-12-methyl-12,13,16,17, 18,19,20,21-octa-hydro-6,23-(azeno)-11,7-(metheno) imidazo[2,1-c][1,4,9,13,15]oxatetraazacy-clohenicosin-14(15H)-one] | 100.7 | 1
CCN1CCCOc2nc(cn3ccnc23)-c2cccc(c2)[C@@H](C)N(CC)C(=O)NCC1 [Example 15, (12R)-13,18-diethyl-12-methyl-12,13,16, 17,18,19,20,21-octahydro-6,23-(azeno)-11,7-(metheno) imidazo[2,1-c][1,4,13,15,18]oxa-tetraazacyclo-henicosin-14(15H)-one] | 96.2 | 1180
